Results on 17 molecules are retold here after US20250222116A1, “PARP-1 DEGRADATION AGENT AND USE THEREOF” (XIZANG HAISCO PHARMACEUTICAL CO., LTD., priority 2021, published 2025).

Broadly, the IC50 is the midpoint of a concentration-inhibition curve.

The structures appear in SMILES notation. Like-named read-outs stand apart in the source and are kept apart here.

The test has as its system breast tumor cells MDA-MB-436. Description: MDA-MB-436 cell activity test (CellTiter-Glo, 7 days). In kind it is cell-based, human. The conditions noted are these: for IC50: 7 days incubation, read-out: IC50 (nM), MDA-MB-436 cell inhibitory activity; for inhibition at 10 µM: MDA-MB-436, MDA-MB-436 cells, read-out: Max inh. % 10 μM. How it is done:
Breast tumor cells MDA-MB-436 were purchased from ATCC, the culture medium was Leibovitz's L-15+10% FBS, and the cells were cultured in a CO2-free incubator at 37° C. On day 1, the cells in the exponential growth phase were collected, and the cell suspension was adjusted to 4000 cells/135 μL with the culture medium. 135 μL of the cell suspension was added to each well of a 96-well cell culture plate and incubated overnight. On day 2, compounds at different concentrations were added, and the plate was placed in the incubator and incubated for 7 days. After the culture was completed, according to operation instructions for a CellTiter-Glo kit (Promega, G7573), 75 μL of CTG solution, which was already pre-melted and equilibrated to room temperature, was added to each well, and the mixture was uniformly mixed for 2 minutes using a microplate shaker. The plate was placed at room temperature for 10 minutes, and then […] signal values were determined using an Envision2104 plate reader (PerkinElmer). The inhibition rate was calculated using formula (1), where RLUcompound was the readout of the drug treated group, RLUcontrol was the average value of the solvent control group, and RLUblank was the average value of the cell-free well. The IC50 value was calculated using GraphPad Prism software.

The mark [1] stands for this setting: Homo sapiens, MDA-MB-436, 168 h, MDA-MB-436 cells.

For `CCc1cc2ncc(CN3CCN(c4ccc(C(=O)NC5CCN(CC6CCN(Cc7ccc(-n8c(O)nnc8-c8cc(C(C)C)c(O)cc8O)cc7)CC6)CC5)nc4)CC3)cc2[nH]c1=O` [Compound 8, N-(1-((1-(4-(3-(2,4-dihydroxy-5-isopropylphenyl)-5-hydroxy-4H-1,2,4-triazol-4-yl)benzyl)piperidin-4-yl)methyl)piperidin-4-yl)-5-(4-((7-ethyl-6-oxo-5,6-dihydro-1,5-naphthyridin-3-yl)methyl)piperazin-1-yl)picolinamide], the IC50 under setting [1] was 15 nM. The inhibition at 10 µM (Homo sapiens, 10 μM) was 99.8%.

Turning to `CCc1cc2ncc(CN3CCN(c4ccc(C(=O)NC5CN(c6ccc7c(c6)C(=O)N(C6CCC(=O)NC6=O)C7=O)C5)nc4)CC3)cc2[nH]c1=O` (stereo not shown) [Compound 11, N-(1-(2-(2,6-dioxopiperidin-3-yl)-1,3-dioxoisoindolin-5-yl)azetidin-3-yl)-5-(4-((7-ethyl-6-oxo-5,6-dihydro-1,5-naphthyridin-3-yl)methyl)piperazin-1-yl)picolinamide], the IC50 under setting [1] was determined as 2 nM. Besides, the inhibition at 10 µM (Homo sapiens, 10 μM) is 99.8%.

Regarding `CCc1cc2ncc(CN3CCN(c4ccc(C(=O)NC5CCN(C(=O)CC67CC8C[C@H](C6)C[C@H](C8)C7)CC5)nc4)CC3)cc2[nH]c1=O` [Compound 12, N-(1-(2-((3R,5R)-adamantan-1-yl)acetyl)piperidin-4-yl)-5-(4-((7-ethyl-6-oxo-5,6-dihydro-1,5-naphthyridin-3-yl)methyl)piperazin-1-yl)picolinamide], the IC50 under setting [1] worked out at 44 nM. Besides, the inhibition at 10 µM (Homo sapiens, 10 μM) amounted to 89.6%.

Consider `CCc1cc2ncc(CN3CCN(c4ccc(C(=O)NC5CN(C(=O)CC67CC8C[C@H](C6)C[C@H](C8)C7)C5)nc4)CC3)cc2[nH]c1=O` [Compound 13, N-(1-(2-((3R,5R)-adamantan-1-yl)acetyl)azetidin-3-yl)-5-(4-((7-ethyl-6-oxo-5,6-dihydro-1,5-naphthyridin-3-yl)methyl)piperazin-1-yl)picolinamide], for which the IC50 under setting [1] was determined as 5 nM. Moreover, where the note is “Homo sapiens, 10 μM”, the inhibition at 10 µM worked out at 89.7%.

Turning to `CCc1cc2ncc(CN3CCN(c4ccc(C(=O)NC5CCN(C6CN(c7cccc8c7C(=O)N(C7CCC(=O)NC7=O)C8=O)C6)CC5)nc4)CC3)cc2[nH]c1=O` (stereo not shown) [Compound 15, N-(1-(1-(2-(2,6-dioxopiperidin-3-yl)-1,3-dioxoisoindolin-4-yl)azetidin-3-yl)piperidin-4-yl)-5-(4-((7-ethyl-6-oxo-5,6-dihydro-1,5-naphthyridin-3-yl)methyl)piperazin-1-yl)picolinamide], the IC50 under setting [1] amounted to 25 nM. The inhibition at 10 µM (Homo sapiens, 10 μM) stood at 87.2%.

With `CCc1cc2ncc(CN3CCN(c4ccc(C(=O)NC5CN(c6cccc7c6C(=O)N(C6CCC(=O)NC6=O)C7=O)C5)nc4)CC3)cc2[nH]c1=O` (stereo not shown) [Compound 16, N-(1-(2-(2,6-dioxopiperidin-3-yl)-1,3-dioxoisoindolin-4-yl)azetidin-3-yl)-5-(4-((7-ethyl-6-oxo-5,6-dihydro-1,5-naphthyridin-3-yl)methyl)piperazin-1-yl)picolinamide], the IC50 under setting [1] came out at 15 nM. For the same molecule, the inhibition at 10 µM (Homo sapiens, 10 μM) was found to be 78.8%.

For the molecule `CCc1cc2ncc(CN3CCN(c4ccc(C(=O)NC5CN(c6cc7c(cc6F)C(=O)N(C6CCC(=O)NC6=O)C7=O)C5)nc4)CC3)cc2[nH]c1=O` (stereo not shown) [Compound 17, N-(1-(2-(2,6-dioxopiperidin-3-yl)-6-fluoro-1,3-dioxoisoindolin-5-yl)azetidin-3-yl)-5-(4-((7-ethyl-6-oxo-5,6-dihydro-1,5-naphthyridin-3-yl)methyl)piperazin-1-yl)picolinamide], under setting [1], the IC50 stood at 61 nM. Moreover, the inhibition at 10 µM (Homo sapiens, 10 μM) worked out at 99%.

For the molecule `CCc1cc2ncc(CN3CCN(c4ccc(C(=O)NC5CCN(c6cccc7c6C(=O)N(C6CCC(=O)NC6=O)C7=O)CC5)nc4)CC3)cc2[nH]c1=O` (stereo not shown) [Compound 19, N-(1-(2-(2,6-dioxopiperidin-3-yl)-1,3-dioxoisoindolin-4-yl)piperidin-4-yl)-5-(4-((7-ethyl-6-oxo-5,6-dihydro-1,5-naphthyridin-3-yl)methyl)piperazin-1-yl)picolinamide], the IC50 under setting [1] worked out at 21 nM. Moreover, the inhibition at 10 µM (Homo sapiens, 10 μM) turned out to be 90.3%.

As for `CCc1cc2ncc(CN3CCN(c4ccc(C(=O)N[C@H]5CCN(c6ccc7c(c6)C(=O)N(C6CCC(=O)NC6=O)C7=O)C5)nc4)CC3)cc2[nH]c1=O` (stereo partly drawn) [Compound 21, N-((3S)-1-(2-(2,6-dioxopiperidin-3-yl)-1,3-dioxoisoindolin-5-yl)pyrrolidin-3-yl)-5-(4-((7-ethyl-6-oxo-5,6-dihydro-1,5-naphthyridin-3-yl)methyl)piperazin-1-yl)picolinamide], the IC50 under setting [1] amounted to 25 nM. For the same molecule, the inhibition at 10 µM (Homo sapiens, 10 μM) amounted to 88.9%.

On to `CCc1cc2ncc(CN3CCN(c4ccc(C(=O)N[C@H]5CC[C@@H](Nc6ccc7c(c6)C(=O)N(C6CCC(=O)NC6=O)C7=O)CC5)nc4)CC3)cc2[nH]c1=O` (stereo partly shown) [Compound 27, N-((1s,4s)-4-((2-(-2,6-dioxopiperidin-3-yl)-1,3-dioxoisoindolin-5-yl)amino)cyclohexyl)-5-(4-((7-ethyl-6-oxo-5,6-dihydro-1,5-naphthyridin-3-yl)methyl)piperazin-1-yl)picolinamide], for which the IC50 under setting [1] came out at 15 nM. Also, the inhibition at 10 µM (Homo sapiens, 10 μM) is 95.8%.

`CCc1cc2ncc(CN3CCN(c4ccc(C(=O)N[C@H]5C[C@@H](Nc6ccc7c(c6)C(=O)N(C6CCC(=O)NC6=O)C7=O)C5)nc4)CC3)cc2[nH]c1=O` (stereo partly shown) [Compound 37, N-((1s,3s)-3-((2-(2,6-dioxopiperidin-3-yl)-1,3-dioxoisoindolin-5-yl)amino)cyclobutyl)-5-(4-((7-ethyl-6-oxo-5,6-dihydro-1,5-naphthyridin-3-yl)methyl)piperazin-1-yl)picolinamide]: the IC50 under setting [1] turned out to be 23 nM. The inhibition at 10 µM (Homo sapiens, 10 μM) amounted to 92.1%.

In the case of `CCc1cc2ncc(CN3CCN(c4ccc(C(=O)N[C@H]5C[C@H](Nc6ccc7c(c6)C(=O)N(C6CCC(=O)NC6=O)C7=O)C5)nc4)CC3)cc2[nH]c1=O` (stereo partly shown) [Compound 38, N-((1r,3r)-3-((2-(2,6-dioxopiperidin-3-yl)-1,3-dioxoisoindolin-5-yl)amino)cyclobutyl)-5-(4-((7-ethyl-6-oxo-5,6-dihydro-1,5-naphthyridin-3-yl)methyl)piperazin-1-yl)picolinamide], under setting [1], the IC50 amounted to 12 nM. In addition, the inhibition at 10 µM (Homo sapiens, 10 μM) is 77.1%.

With `CCc1cc2ncc(CN3CCN(c4ccc(C(=O)N[C@H]5C[C@@H](Nc6cc7c(cc6F)C(=O)N(C6CCC(=O)NC6=O)C7=O)C5)nc4)CC3)cc2[nH]c1=O` (stereo partly shown) [Compound 41, N-((1s,3s)-3-((2-(2,6-dioxopiperidin-3-yl)-6-fluoro-1,3-dioxoisoindolin-5-yl)amino)cyclobutyl)-5-(4-((7-ethyl-6-oxo-5,6-dihydro-1,5-naphthyridin-3-yl)methyl)piperazin-1-yl)picolinamide], the IC50 under setting [1] came to 11 nM. Besides, for the setting “Homo sapiens, 10 μM”, the inhibition at 10 µM was 85.7%.

On to `CCc1cc2ncc(CN3CCN(c4ccc(C(=O)NC5CC(Nc6ccc7c(c6)C(=O)N([C@@H]6CCC(=O)NC6=O)C7=O)C5)nc4)CC3)cc2[nH]c1=O` (stereo partly shown) [Compound 42, N-((1r, 3r)-3-((2-(2,6-dioxopiperidin-3-yl)-1,3-dioxoisoindolin-5-yl)amino)cyclobutyl)-5-(4-((7-ethyl-6-oxo-5,6-dihydro-1,5-naphthyridin-3-yl)methyl)piperazin-1-yl)picolinamide], for which the “Max inh. % 10 μM” value (MDA-MB-436 cells, 10 μM) is given as 86.3%. The IC50 (MDA-MB-436 cells) was determined as 17 nM.

Consider `CCc1cc2ncc(CN3CCN(c4ccc(C(=O)NC5CCN(c6ccc7c(c6)C(=O)N(C6CCC(=O)NC6=O)C7)CC5)nc4)CC3)cc2[nH]c1=O` (stereo not shown) [Compound 48, N-(1-(2-(2,6-dioxopiperidin-3-yl)-3-oxoisoindolin-5-yl)piperidin-4-yl)-5-(4-((7-ethyl-6-oxo-5,6-dihydro-1,5-naphthyridin-3-yl)methyl)piperazin-1-yl)picolinamide], for which the half-inhibitory concentration (IC50) under setting [1] stood at 28 nM. The inhibition at 10 µM (Homo sapiens, 10 μM) came to 94.6%.

As to `CCc1cc2ncc(CN3CC=C(c4ccc(C(=O)NC5CCN(c6ccc7c(c6)C(=O)N(C6CCC(=O)NC6=O)C7=O)CC5)nc4)CC3)cc2[nH]c1=O` (stereo not shown) [Compound 49, N-(1-(2-(2,6-dioxopiperidin-3-yl)-1,3-dioxoisoindolin-5-yl)piperidin-4-yl)-1′-((7-ethyl-6-oxo-5,6-dihydro-1,5-naphthyridin-3-yl)methyl)-1′,2′,3′,6′-tetrahydro-[3,4′-bipyridine]-6-carboxamide], under setting [1], the IC50 is 101 nM. Also, the inhibition at 10 µM (Homo sapiens, 10 μM) is 93.8%.

With `CCc1cc2ncc(CN3CCN(c4ccc(C(=O)N[C@H]5CCN(c6cc7c(cc6F)C(=O)N(C6CCC(=O)NC6=O)C7=O)C5)nc4)CC3)cc2[nH]c1=O` (stereo partly drawn) [Compound 51, N-((3S)-1-(2-(2,6-dioxopiperidin-3-yl)-6-fluoro-1,3-dioxoisoindolin-5-yl)pyrrolidin-3-yl)-5-(4-((7-ethyl-6-oxo-5,6-dihydro-1,5-naphthyridin-3-yl)methyl)piperazin-1-yl)picolinamide], under setting [1], the IC50 stood at 19 nM. For the setting “Homo sapiens, 10 μM”, the inhibition at 10 µM was determined as 97.5%.
